{
  "source": "patent US7973219B2",
  "about": "“Method for producing transgenic plants resistant to weed control compounds which disrupt the porphyrin pathways of plants” (Sumitomo Chemical Company, Limited, priority 1998, dated 2011)",
  "key": {"[1]": {"test_system": "E. coli BT3/pACYCSP+pTVCRP strain", "experiment": "Growth of E. coli BT3/pACYCSP+pTVCRP (variant Chlamydomonas reinhardtii PPO) with herbicidal compound", "type": "cell-based, Escherichia coli", "conditions": "18 hours culture, Table 9", "source_text": "According to the description of Gibson, L. C. D. et al., Proc. Natl. Acad. Sci. USA, 92; p 1941 (1995), the DNA fragment containing bchH gene prepared in Example 1 was digested with the restriction enzymes NdeI and BglII. The resultant DNA fragment was inserted between NdeI restriction site and BamHI restriction site of expression vector pET11a (manufactured by Stratagene) to obtain plasmid pETBCH (FIG. 1). This plasmid pETBCH was introduced into E. coli BL21(DE3) strain competent cells (manufactured by Stratagene) according to the manual attached to the competent cells to obtain E. coli BL21(DE3)/pETBCH strain. The strain was inoculated into 1.5 ml LB liquid culture medium (1% tryptone, 0.5% yeast extract, 0.5% NaCl) containing 100 μg/ml ampicillin in a tube (14×10 mm), and the tube was covered with aluminum foil (hereinafter referred to as dark conditions), cultured with shaking at 37° C. under light of fluorescent lamp (about 8000 lux). When the absorbance at 600 nm of the liquid culture medium became about 0.6, isopropyl β-D-thiogalactopyranoside (IPTG) was added to the liquid culture medium so that the final concentration was 0.4 mM, and the culture was continued for about additional 20 hours. […] In contrast to this, when E. coli BL21(DE3)/pETBCH strain was cultured according to the same manner (with IPTG) except that the tube was not covered with aluminum foil (hereinafter referred to as light conditions), E. coli grew and turned red as above.\nPlasmids pTVCRP and pTV118N prepared in Example 16 were introduced into E. coli BT3/pACYCSP strain prepared in Example 3 respectively according to the method described in Hanahan, D. J., Mol. Biol., 166; p 557 (1983). E. coli BT3/pACYCSP+pTVCRP strain bearing plasmids pACYCSP and pTVCRP, and E. coli BT3/pACYCSP+pTV118N strain bearing plasmids pACYCSP and pTV118N were obtained by culturing the above strains in YPT medium containing 100 μg/ml ampicillin, 15 μg/ml chloramphenicol and 10 μg/ml kanamycin.\nThese E. coli strains were inoculated into YPT medium containing 10 or 1 ppm of the PPO inhibitory-type herbicidal compound represented by Structure 8, 100 μg/ml ampicillin. 15 μg/ml chloramphenicol, 10 μg/ml kanamycin, 10 μg/ml hemin and 50 μg/ml aminolevulinic acid, cultured under dark conditions or light conditions in the same manner as in Example 2. Then, 18 hours after initiation of culture, the absorbance of liquid culture medium was measured at 600 nm. By taking the absorbance of the medium containing no herbicidal compound as 1, the relative value of the absorbance of the medium containing the herbicidal compound was calculated."}, "[2]": {"test_system": "tobacco into which the gene encoding the variant Chlamydomonas reinhardtii PPO was introduced", "experiment": "Leaf piece chlorophyll test, tobacco with gene encoding variant Chlamydomonas reinhardtii PPO", "type": "in vivo", "conditions": "Table 10; for Resistant level to test compound: same manner as Example 6 (0.3 ppm), treated vs untreated leaf pieces; for Total chlorophyll content treated-leaf: same manner as Example 6 (0.3 ppm, 7 days in light)", "source_text": "The tobacco leaves into which bchH gene was introduced and control recombinant tobacco leaves obtained in Example 5 were collected and each leaf was divided into the right and left equivalent pieces along the main vein, respectively. To one piece was applied an aqueous solution containing 0.3 ppm PPO inhibitory-type herbicidal compound of Structure 8, while, to the other piece was not applied the compound. These leaf pieces were placed on MS medium containing 0.8% agar and allowed to stand at room temperature for 7 days in light place. Then, each leaf piece was ground with pestle and mortar in 5 ml of 80% aqueous acetone solution to extract chlorophyll. The extract liquid was diluted with 80% aqueous acetone solution and the absorbance was measured at 750 nm, 663 nm and 645 nm to calculate total chlorophyll content according to the method described by Macknney G., J. Biol. Chem. (1941) 140, p 315. The results obtained from 4 clones of tobacco into which bchH gene was introduced (BCH1 to 4) and control recombinant tobacco is shown in Table 4. In the table, the resistant level to the herbicidal compound was represented by percentages of the total chlorophyll content of leaf pieces treated with herbicidal compound to that of untreated leaf pieces.\nLeaf pieces of tobacco cultured sterilely were infected with the Agrobacterium strain and, according to the same manner as in Example 5, tobacco into which the gene encoding the variant Chlamydomonas reinhardtii PPO was introduced was obtained.\nThe level of resistance to the PPO-inhibitory type herbicidal compound represented by Structure 8 was confirmed quantitatively by testing tobacco into which the gene encoding the variant Chlamydomonas reinhardtii PPO prepared in Example 18 was introduced according to the same manner as in Example 6. The results obtained from 4 clones (CRP 1-4) of tobacco into which the gene encoding the variant Chlamydomonas reinhardtii PPO was introduced and control recombinant tobacco is shown in Table 10. In the table, the resistant levels to the herbicidal compound are represented by percentages of the total chlorophyll content of leaf pieces treated with the herbicidal compound to that of untreated leaf pieces."}},
  "data": [
    {"smiles": "C#CCOc1cc(N2C(=O)C3=C(CCCC3)C2=O)c(F)cc1Cl", "note": "[Structure 8]", "values": [
      {"measurement": "Relative absorbance", "setting": "[1]; in the dark, 1 ppm", "result": 0.82},
      {"measurement": "Relative absorbance", "setting": "[1]; in the dark, 10 ppm", "result": 0.81},
      {"measurement": "Relative absorbance", "setting": "[1]; in the light, 1 ppm", "result": 0.42},
      {"measurement": "Relative absorbance", "setting": "[1]; in the light, 10 ppm", "result": 0.23},
      {"measurement": "Resistant level to test compound", "setting": "[2]; clone CRP-1", "result": 121, "unit": "%"},
      {"measurement": "Total chlorophyll content treated-leaf", "setting": "[2]; clone CRP-1", "result": 1.54, "unit": "mg/g-fresh weight"},
      {"measurement": "Resistant level to test compound", "setting": "[2]; clone CRP-2", "result": 111, "unit": "%"},
      {"measurement": "Total chlorophyll content treated-leaf", "setting": "[2]; clone CRP-2", "result": 1.67, "unit": "mg/g-fresh weight"},
      {"measurement": "Resistant level to test compound", "setting": "[2]; clone CRP-3", "result": 101, "unit": "%"},
      {"measurement": "Total chlorophyll content treated-leaf", "setting": "[2]; clone CRP-3", "result": 1.11, "unit": "mg/g-fresh weight"},
      {"measurement": "Resistant level to test compound", "setting": "[2]; clone CRP-4", "result": 99.4, "unit": "%"}
    ]}
  ]
}
